Experiment [1] addresses T1, GST tagged LXRalpha LBD (ligand binding domain) (Homo sapiens, UniProt Q13133).
T1 construct: purchased Invitrogen pv4655
T1 sequence (Q13133 209-447 limits assumed): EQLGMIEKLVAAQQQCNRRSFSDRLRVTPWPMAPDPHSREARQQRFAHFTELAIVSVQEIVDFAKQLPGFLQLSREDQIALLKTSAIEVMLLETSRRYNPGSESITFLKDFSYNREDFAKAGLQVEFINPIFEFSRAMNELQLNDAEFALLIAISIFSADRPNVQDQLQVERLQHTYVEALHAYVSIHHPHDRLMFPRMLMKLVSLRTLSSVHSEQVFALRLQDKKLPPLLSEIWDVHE
The experiment in a line: LanthaScreen TR-FRET Liver X Receptor Coactivator Assay, LXR alpha-LBD (co-activator recruitment; IP and % Emax relative to T0901317). Format: biochemical. The settings on record: for LXR alpha IP (nM) / EC50: Inflection Point of co-activator recruitment, LXR alpha-LBD, TR-FRET; for Emax: efficacy at max dose in relation to reference T0901317, LXR alpha-LBD, read-out: LXR alpha actiivty at max dose (%). The method in brief:
(§1)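 Potency as inflection point and efficacy as Emax come from compound-driven coactivator peptide recruitment, scaled to T0901317, using a terbium/fluorescein TR-FRET format after room-temperature incubation.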

The target of experiment [2] is T2, GST tagged LXRbeta LBD (ligand binding domain) (Homo sapiens, UniProt P55055).
T2 construct: purchased Invitrogen pv4658.pps
T2 sequence (P55055 222-460 limits assumed): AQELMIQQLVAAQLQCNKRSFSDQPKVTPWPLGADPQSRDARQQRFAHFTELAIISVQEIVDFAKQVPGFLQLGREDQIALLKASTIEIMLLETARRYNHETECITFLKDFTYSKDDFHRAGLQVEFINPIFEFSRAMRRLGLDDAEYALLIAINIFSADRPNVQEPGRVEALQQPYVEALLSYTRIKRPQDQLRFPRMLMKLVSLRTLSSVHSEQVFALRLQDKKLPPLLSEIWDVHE
Kind of experiment: LanthaScreen TR-FRET Liver X Receptor Coactivator Assay, LXR beta-LBD (co-activator recruitment; IP and % Emax relative to T0901317). Format: biochemical. Conditions: for EC50: Inflection Point of co-activator recruitment, LXR beta-LBD, TR-FRET; for Emax: efficacy at max dose in relation to reference T0901317, LXR beta-LBD, read-out: LXR beta actiivty at max dose (%). The method, boiled down:
as §1
(In general: In TR-FRET formats the signal depends on donor and acceptor labels being close together.)

SMILES strings stand for the structures.

For orientation: EC50 means the midpoint of the concentration-response curve. The low end stands for higher potency in that assay, the high end for lower potency in that assay.

Turning to `CN(C)C(=O)c1ccc(N2CCC([C@H]3C[C@H](N(C)C(=O)[C@](O)(c4cccc(C5CC5)c4)C(F)(F)F)C3)CC2)nc1Cl` [Example 17-1, 2-chloro-6-(4-((1R,3r)-3-((R)-2-(3-cyclopropylphenyl)-3,3,3-trifluoro-2-hydroxy-N-methylpropanamido)cyclobutyl)piperidin-1-yl)-N,N-dimethylnicotinamide], in experiment [1], the “LXR alpha IP (nM)” value was “No IP” and the Emax came to 14%. In experiment [2], a half-maximal response (EC50) required 18 nM and the Emax was determined as 76%.

Turning to `CN(C)C(=O)c1ccc(N2CCC(CCCN(C)C(=O)[C@](O)(c3cccc(O)c3)C(F)(F)F)CC2)nc1Cl` [Example 1-58, (R)-2-chloro-N,N-dimethyl-6-(4-(3-(3,3,3-trifluoro-2-hdyroxy-2-(3-hydroxyphenyl)-N-methylpropanamido)propyl)piperidin-1-yl)nicotinamide], the 50% effective concentration (EC50) in experiment [1] was 2780 nM; in experiment [2], 37 nM. The Emax came to 37% in experiment [1] and 86% in experiment [2].

On to `CCOc1cccc([C@@](O)(C(=O)N(C)CCCC2CCN(c3ccc(C(=O)N(C)C)c(Cl)c3)CC2)C(F)(F)F)c1` [Example 4-2, (R)-2-chloro-4-(4-(3-(2-(3-ethoxyphenyl)-3,3,3-trifluoro-2-hydroxy-N-methylpropanamido)propyl)piperidin-1-yl)-N,N-dimethylbenzamide], for which, in experiment [1], the “LXR alpha IP (nM)” value was “No IP” and the Emax is 0%. Besides, in experiment [2], the EC50 is 217 nM and the Emax worked out at 49%.

Turning to `CNC(=O)c1ccc(N2CCC3(CC2)C[C@H]3CCN(C)C(=O)[C@](O)(c2ccccc2)C(F)(F)F)cc1Cl` [Example 7-24, 2-chloro-N-methyl-4-((S)-1-(2-((R)-3,3,3-trifluoro-2-hydroxy-N-methyl-2-phenylpropanamido)ethyl)-6-azaspiro[2.5]octan-6-yl)benzamide], in experiment [1], the “LXR alpha IP (nM)” value is reported as “No IP” and the Emax worked out at 16%. In addition, in experiment [2], the EC50 worked out at 1410 nM and the Emax is 37%.

As for `COc1cccc([C@@](O)(C(=O)N(C)CC[C@@H]2CC23CCN(c2ccc(C(=O)N(C)C)c(Cl)c2)CC3)C(F)(F)F)c1` [Example 7-22, 2-chloro-N,N-dimethyl-4-((S)-1-(2-((R)-3,3,3-trifluoro-2-hydroxy-2-(3-methoxyphenyl)-N-methylpropanamido)ethyl)-6-azaspiro[2.5]octan-6-yl)benzamide], in experiment [1], the “LXR alpha IP (nM)” value is “No IP” and the Emax was 3%. Moreover, in experiment [2], the midpoint of the response, the EC50, lay at 572 nM and the Emax was found to be 43%.

Consider `CC(C)NC(=O)c1ccc(N2CCC3(CC2)C[C@H]3CCN(C)C(=O)[C@](O)(c2ccccc2)C(F)(F)F)cc1Cl` [Example 7-28, 2-chloro-N-isopropyl-4-((S)-1-(2-((R)-3,3,3-trifluoro-2-hydroxy-N-methyl-2-phenylpropanamido)ethyl)-6-azaspiro[2.5]octan-6-yl)benzamide], for which, in experiment [1], the “LXR alpha IP (nM)” value is recorded as “No IP” and the Emax came to 6%. Further, in experiment [2], a half-maximal response (EC50) required 1620 nM and the Emax was determined as 31%.

Take `CN(C)C(=O)c1ccc(N2CCC(CCCNC(=O)[C@](O)(c3ccccc3)C(F)(F)F)CC2)nc1Cl` [Example 5-8, (R)-2-chloro-N,N-dimethyl-6-(4-(3-(3,3,3-trifluoro-2-hydroxy-2-phenylpropanamido)propyl)piperidin-1-yl) nicotinamide]: in experiment [1], the EC50 was 5140 nM and the Emax turned out to be 28%. Also, in experiment [2], it took 105 nM to reach a half-maximal effect (EC50) and the Emax is 104%.

Turning to `COc1cccc([C@]2(C(=O)N(C)CCCC3CCN(c4ccc(C(=O)N(C)C)c(Cl)n4)CC3)CCCO2)c1` [Example 1-46, (S)-2-chloro-6-(4-(3-(2-(3-methoxyphenyl)-N-methyltetrahydrofuran-2-carboxamido)propyl)piperidin-1-yl)-N,N-dimethylnicotinamide], in experiment [1], the “LXR alpha IP (nM)” value is “No IP” and the Emax turned out to be 0%. In experiment [2], the response was half-maximal at 412 nM (EC50) and the Emax was determined as 37%.

Take `COc1cccc([C@@](O)(C(=O)N(C)CC[C@H]2CC23CCN(c2ccc(C(=O)NC4CC4)c(Cl)n2)CC3)C(F)(F)F)c1` [Example 7-16, 2-chloro-N-cyclopropyl-6-((R)-1-(2-((R)-3,3,3-trifluoro-2-hydroxy-2-(3-methoxyphenyl)-N-methylpropanamido)ethyl)-6-azaspiro[2.5]octan-6-yl)nicotinamide]: the EC50 was 1790 nM in experiment [1] and 101 nM in experiment [2]. The Emax in experiment [1] was determined as 40%; in experiment [2], 54%.

For the compound `CN(C)C(=O)c1ccc(N2CCC(CCCN(C)C(=O)[C@@]3(c4ccccc4)CCOC3)CC2)nc1Cl` [Example 1-55, (R)-2-chloro-N,N-dimethyl-6-(4-(3-(N-methyl-3-phenyltetrahydrofuran-3-carboxamido)propyl)piperidin-1-yl)nicotinamide], in experiment [1], the “LXR alpha IP (nM)” value is given as “No IP” and the Emax was 16%. For the same compound, in experiment [2], the EC50 came out at 856 nM and the Emax was determined as 48%.

In the case of `CN(C)C(=O)c1ccc(N2CCC(CCCNC(=O)[C@@]3(c4ccccc4)CCCO3)CC2)nc1Cl` [Example 5-18, (S)-2-chloro-N,N-dimethyl-6-(4-(3-(2-phenyltetrahydrofuran-2-carboxamido)propyl)piperidin-1-yl)nicotinamide], in experiment [1], the “LXR alpha IP (nM)” value is “No IP” and the Emax amounted to 7%. Also, in experiment [2], the midpoint of the response, the EC50, lay at 990 nM and the Emax is 66%.

`CNC(=O)c1ccc(N2CCC3(CC2)CC(CN(C)C(=O)[C@](O)(c2cccc(OC)c2)C(F)(F)F)C3)nc1Cl` [Example 14-2, 2-chloro-N-methyl-6-(2-(((R)-3,3,3-trifluoro-2-hydroxy-2-(3-methoxyphenyl)-N-methylpropanamido)methyl)-7-azaspiro[3.5]nonan-7-yl)nicotinamide]: in experiment [1], the “LXR alpha IP (nM)” value is “No IP” and the Emax turned out to be 8%. In addition, in experiment [2], a half-maximal response (EC50) required 473 nM and the Emax was 30%.

On to `CN(C)C(=O)c1ccc(N2CCC(C)(CCCN(C)C(=O)[C@](O)(c3ccccc3)C(F)(F)F)CC2)nc1Cl` [Example 9-2, (R)-2-chloro-N,N-dimethyl-6-(4-methyl-4-(3-(3,3,3-trifluroo-2-hydroxy-N-methyl-2-phenylpropanamido)propyl)piper-idin-1-yl)nicotinamide], for which, in experiment [1], the concentration giving a half-maximal response (EC50) amounted to 441 nM and the Emax came to 21%. In experiment [2], the EC50 worked out at 18 nM and the Emax worked out at 47%.

Take `CNC(=O)c1ccc(N2CCC(CCCN(C)C(=O)[C@](O)(c3cccc(OC)c3)C(F)(F)F)CC2)nc1Cl` [Example 2-11, (R)-2-chloro-N-methyl-6-(4-(3-(3,3,3-trifluoro-2-hydroxy-2-(3-methoxyphenyl)-N-methylpropanamido)propyl)piperidin-1-yl)nicotinamide]: in experiment [1], the “LXR alpha IP (nM)” value is on record as “No IP” and the Emax amounted to 13%. Further, in experiment [2], the EC50 was 524 nM and the Emax turned out to be 60%.

As to `CN(C)C(=O)c1ccc(N2CCC([C@H]3C[C@H]3CN(C)C(=O)[C@](O)(c3cccc(C4CC4)c3)C(F)(F)F)CC2)nc1Cl` [Example 15-5, 2-chloro-6-(4-((1R,2R)-2-(((R)-2-(3-cyclopropylphenyl)-3,3,3-trifluoro-2-hydroxy-N-methylpropanamido)methyl)cyclopropyl)piperidin-1-yl)-N,N-dimethylnicotinamide], in experiment [1], the “LXR alpha IP (nM)” value is reported as “No IP” and the Emax worked out at 18%. In experiment [2], the 50% effective concentration (EC50) was found to be 16 nM and the Emax is 75%.

Take `CN(C)C(=O)c1ccc(N2CCC(CCCN(C)C(=O)C3(c4ccccc4)CCC3)CC2)nc1Cl` [Example 1-43, 2-chloro-N,N-dimethyl-6-(4-(3-(N-methyl-1-phenyl-cyclobutanecarboxamido)propyl)piperidin-1-yl)nicotinamide]: in experiment [1], the “LXR alpha IP (nM)” value is “No IP” and the Emax amounted to 11%. Further, in experiment [2], the concentration giving a half-maximal response (EC50) came out at 110 nM and the Emax turned out to be 54%.

On to `CCc1cccc([C@@](O)(C(=O)NCCCC2CCN(c3ccc(C(=O)N(C)C)c(Cl)n3)CC2)C(F)(F)F)c1` [Example 5-17, (R)-2-chloro-6-(4-(3-(2-(3-ethylphenyl)-3,3,3-trifluoro-2-hydroxypropanamido)propyl)piperidin-1-yl)-N,N-dimethylnicotinamide], for which, in experiment [1], the “LXR alpha IP (nM)” value is “No IP” and the Emax was determined as 0%. For the same compound, in experiment [2], the EC50 came out at 401 nM and the Emax came to 43%.

For `CN(C)C(=O)c1ccc(N2CCC([C@@H]3C[C@H]3CNC(=O)[C@@](O)(c3ccccc3)C(F)(F)F)CC2)nc1Cl` [Example 15-13, 2-chloro-N,N-dimethyl-6-(4-((1S,2R)-2-(((S)-3,3,3-trifluoro-2-hydroxy-2-phenylpropanamido)methyl)cyclopropyl)piperidin-1-yl)nicotinamide], in experiment [1], the “LXR alpha IP (nM)” value is “No IP” and the Emax was determined as 17%. Also, in experiment [2], the midpoint of the response, the EC50, lay at 542 nM and the Emax came out at 84%.
